Experimental data from US20100227917A1, “EYE DROP CONTAINING DIBENZ[b,e]OXEPIN DERIVATIVE” (priority 2007, published 2010).

Columns and labels:
Assay type in all cases: physicochemical
pH measurement = assay: pH measurement
[1] = External observation of olopatadine hydrochloride mixtures (Test Examples 1 and 2); details: for External appearance after 1 hour stirring: about 23° C.; for External appearance after 43 hours: left at about 23° C.
[2] = Osmotic pressure measurement with osmometer; details: ratio to physiological saline (293 mOsm), after 43 hours
Description: An osmotic pressure was measured using an osmometer (Osmostat OM6040, Arkray, Inc.).
Further, a ratio to the osmotic pressure of physiological saline was calculated according to the following equation.
(osmotic pressure ratio)=(osmotic pressure of test liquid)/(osmotic pressure of physiological saline)(293mOsm)

[3] = 100 mg in 10 mL Aqueous solution of 0.9% NaCl
[4] = 100 mg in 10 mL Buffer at pH 4.0 containing 0.9% NaCl
[5] = 100 mg in 10 mL Buffer at pH 7.0 containing 0.9% NaCl
[6] = 100 mg in 10 mL glutamic acid-sodium glutamate buffer at pH 4.0, column prepared to pH 4.0
[7] = 100 mg in 10 mL glutamic acid-sodium glutamate buffer at pH 4.0, column prepared to pH 7.0
[8] = 100 mg in 10 mL glutamic acid-sodium glutamate buffer at pH 7.0, column prepared to pH 4.0
[9] = 100 mg in 10 mL glutamic acid-sodium glutamate buffer at pH 7.0, column prepared to pH 7.0
[10] = Aqueous solution of 0.9% NaCl, prepared to pH 4
[11] = Buffer at pH 4.0 containing 0.9% NaCl, prepared to pH 4
[12] = Buffer at pH 7.0 containing 0.9% NaCl, prepared to pH 4
[13] = glutamic acid-sodium glutamate buffer at pH 4.0, prepared to pH 4.0
[14] = glutamic acid-sodium glutamate buffer at pH 4.0, prepared to pH 7.0
[15] = glutamic acid-sodium glutamate buffer at pH 7.0, prepared to pH 4.0
[16] = glutamic acid-sodium glutamate buffer at pH 7.0, prepared to pH 7.0

CN(C)CC/C=C1/c2ccccc2COc2ccc(CC(=O)O)cc21.Cl [olopatadine hydrochloride, (Z)-11-(3-dimethylaminopropylidene)-6,11-dihydrodibenz[b,e]oxepin-2-acetic acid hydrochloride]
pH after 1 hour stirring (pH measurement; [3]): 3.0 | pH after 1 hour stirring (pH measurement; [4]): 3.6 | pH after 1 hour stirring (pH measurement; [5]): 4.1 | pH after 1 hour stirring (pH measurement; [6]): 3.3 | pH after 1 hour stirring (pH measurement; [7]): 3.3 | pH after 1 hour stirring (pH measurement; [8]): 4.0 | pH after 1 hour stirring (pH measurement; [9]): 4.0 | pH adjustment (actual measurement value) (pH measurement; [10]): 3.8 | pH after 43 hours (pH measurement; [10]): 3.7 | pH adjustment (actual measurement value) (pH measurement; [11]): 3.8 | pH after 43 hours (pH measurement; [11]): 3.8 | pH adjustment (actual measurement value) (pH measurement; [12]): 4.1 | pH after 43 hours (pH measurement; [12]): 3.9 | pH adjustment (actual measurement value) (pH measurement; [13]): 4.1 | pH after 43 hours (pH measurement; [13]): 3.9 | pH adjustment (actual measurement value) (pH measurement; [14]): 6.9 | pH after 43 hours (pH measurement; [14]): 6.9 | pH adjustment (actual measurement value) (pH measurement; [15]): 4.0 | pH after 43 hours (pH measurement; [15]): 3.7 | pH adjustment (actual measurement value) (pH measurement; [16]): 6.9 | pH after 43 hours (pH measurement; [16]): 6.9 | External appearance after 1 hour stirring [1, 3]: Turbid in white | External appearance after 1 hour stirring [1, 4]: Turbid in white | External appearance after 1 hour stirring [1, 5]: Almost clear | External appearance after 1 hour stirring [1, 6]: Clear | External appearance after 1 hour stirring [1, 7]: Clear | External appearance after 1 hour stirring [1, 8]: Clear | External appearance after 1 hour stirring [1, 9]: Clear | External appearance after pH adjustment [1, 10]: Turbid in white | External appearance after 43 hours [1, 10]: Turbid in white | External appearance after pH adjustment [1, 11]: Turbid in white | External appearance after 43 hours [1, 11]: Turbid in white | External appearance after pH adjustment [1, 12]: Almost clear | External appearance after 43 hours [1, 12]: Turbid in white | External appearance after pH adjustment [1, 13]: Clear | External appearance after 43 hours [1, 13]: Turbid in white | External appearance after pH adjustment [1, 14]: Turbid in white | External appearance after 43 hours [1, 14]: Turbid in white | External appearance after pH adjustment [1, 15]: Clear | External appearance after pH adjustment [1, 16]: Turbid in white | External appearance after 43 hours [1, 16]: Turbid in white | Osmotic pressure ratio [2, 10]: 1.085 | Osmotic pressure ratio [2, 11]: 1.167 | Osmotic pressure ratio [2, 12]: 1.201 | Osmotic pressure ratio [2, 13]: 0.290 | Osmotic pressure ratio [2, 14]: 0.403 | Osmotic pressure ratio [2, 15]: 0.270 | Osmotic pressure ratio [2, 16]: 0.379
